Data as given in ChEMBL document CHEMBL1134115, “Antimycobacterial activity of 9-sulfonylated/sulfenylated-6-mercaptopurine derivatives” (Bioorg Med Chem Lett, 2001).
In brackets after ≈: the same amount, converted by molar mass.

Assays:
[1] = tested on: Mycobacterium tuberculosis; assay: Antimycobacterial activity against Mycobacterium tuberculosis H37Rv using Microplate Alamar Blue Assay (MABA) assay; assay type: functional
[2] = tested on: Vero; assay: Cytotoxicity determined in VERO cells at concentrations less than or equal to […] or 10 times the MIC against Mycobacterium tuberculosis H37Rv.; assay type: functional, cell-based; settings: Chlorocebus sabaeus
[3] = tested on: Mycobacterium tuberculosis; assay: Antimycobacterial activity against Mycobacterium tuberculosis wild type (WT, H37Rv); assay type: functional
[4] = tested on: Mycobacterium avium; assay: Percent inhibition against Mycobacterium avium at the dose of 12.5 uM using Microplate Alamar Blue Assay (MABA) assay; assay type: functional
[5] = Selectivity index (IC50/MIC) was determined; assay type: functional
[6] = tested on: Mycobacterium tuberculosis; assay: Antimycobacterial activity against Mycobacterium tuberculosis Erdman using Microplate Alamar Blue Assay (MABA) assay; assay type: functional

| SMILES | MIC [1] | IC50 [2] | MIC [3] | inhibition at 12.5 µM [4] | Selectivity index [5] | MIC [6] |
| --- | --- | --- | --- | --- | --- | --- |
| O=S(=O)(c1ccc(Cl)cc1)n1cnc2c(S)ncnc21 | 3.13 µg/mL (≈ 9.58 µM) | 1 µg/mL (≈ 3.06 µM) | 3.13 µg/mL (≈ 9.58 µM) | 60% | 0.32 SI |  |
| Nc1cccc(S(=O)(=O)n2cnc3c(S)ncnc32)c1 | 3.13 µg/mL (≈ 10.2 µM) | 468 µg/mL (≈ 1520 µM) | 3.13 µg/mL (≈ 10.2 µM) | 68% | 150 SI |  |
| O=[N+]([O-])c1ccccc1S(=O)(=O)n1cnc2c(S)ncnc21 | 1.56 µg/mL (≈ 4.62 µM) | 64 µg/mL (≈ 190 µM) |  | 50% | 40 SI |  |
| O=[N+]([O-])c1ccc(Sn2cnc3c(S)ncnc32)cc1 |  | 45 µg/mL (≈ 147 µM) | 0.78 µg/mL (≈ 2.55 µM) | 79% | 58 SI | 0.78 µg/mL (≈ 2.55 µM) |
| Nc1ccc(S(=O)(=O)n2cnc3c(S)ncnc32)cc1 | 0.78 µg/mL (≈ 2.54 µM) | > 100 µg/mL |  | 63% | > 128 SI |  |
| CC(=O)Nc1ccc(S(=O)(=O)n2cnc3c(S)ncnc32)cc1 | 0.78 µg/mL (≈ 2.23 µM) | > 200 µg/mL | 0.78 µg/mL (≈ 2.23 µM) | 57% | > 256 SI |  |
| O=S(=O)(c1ccc(Br)cc1)n1cnc2c(S)ncnc21 | 0.78 µg/mL (≈ 2.1 µM) | 2 µg/mL (≈ 5.39 µM) |  | 81% | 2.6 SI |  |
| CO[C@H]1/C=C/O[C@@]2(C)Oc3c(C)c(O)c4c(O)c(c(/C=N/N5CCN(C)CC5)c(O)c4c3C2=O)NC(=O)/C(C)=C\C=C\[C@H](C)[C@H](O)[C@@H](C)[C@@H](O)[C@@H](C)[C@H](OC(C)=O)[C@@H]1C [RIFAMPIN] | 0.125 µg/mL (≈ 0.152 µM) | > 1000 µg/mL | 0.125 µg/mL (≈ 0.152 µM) |  | > 8000 SI |  |
| CN(C)S(=O)(=O)n1cnc2c(=S)[nH]cnc21 | 0.39 µg/mL (≈ 1.5 µM) | > 200 µg/mL | 0.39 µg/mL (≈ 1.5 µM) | 40% | > 513 SI |  |
| O=S(=O)(c1ccc(F)cc1)n1cnc2c(S)ncnc21 | 3.39 µg/mL (≈ 10.9 µM) | 1 µg/mL (≈ 3.22 µM) |  | 70% | 0.3 SI |  |
| Cc1ccc(S(=O)(=O)n2cnc3c(S)ncnc32)cc1 | 1.6 µg/mL (≈ 5.22 µM) | 4 µg/mL (≈ 13.1 µM) |  | 73% | 2.5 SI |  |
| O=[N+]([O-])c1ccccc1Sn1cnc2c(S)ncnc21 | 0.78 µg/mL (≈ 2.55 µM) | 5 µg/mL (≈ 16.4 µM) |  | 75% | 6.4 SI |  |
